Assay results as given in patent US11944624B2, “Peptide and small molecule agonists of EphA and their uses” (CASE WESTERN RESERVE UNIVERSITY, priority 2017, dated 2024).

Key:
Assay type in all cases: cell-based
EphA1 = target: T1, EphA1 (Homo sapiens, UniProt P21709); test: EphA1 activation in HEK 293 cells overexpressing EphA1; conditions: HEK 293 overexpressing EphA1, same concentrations
T1 construct: expressed in transfected cells; host or cells: HEK 293
T1 sequence (P21709 26-976): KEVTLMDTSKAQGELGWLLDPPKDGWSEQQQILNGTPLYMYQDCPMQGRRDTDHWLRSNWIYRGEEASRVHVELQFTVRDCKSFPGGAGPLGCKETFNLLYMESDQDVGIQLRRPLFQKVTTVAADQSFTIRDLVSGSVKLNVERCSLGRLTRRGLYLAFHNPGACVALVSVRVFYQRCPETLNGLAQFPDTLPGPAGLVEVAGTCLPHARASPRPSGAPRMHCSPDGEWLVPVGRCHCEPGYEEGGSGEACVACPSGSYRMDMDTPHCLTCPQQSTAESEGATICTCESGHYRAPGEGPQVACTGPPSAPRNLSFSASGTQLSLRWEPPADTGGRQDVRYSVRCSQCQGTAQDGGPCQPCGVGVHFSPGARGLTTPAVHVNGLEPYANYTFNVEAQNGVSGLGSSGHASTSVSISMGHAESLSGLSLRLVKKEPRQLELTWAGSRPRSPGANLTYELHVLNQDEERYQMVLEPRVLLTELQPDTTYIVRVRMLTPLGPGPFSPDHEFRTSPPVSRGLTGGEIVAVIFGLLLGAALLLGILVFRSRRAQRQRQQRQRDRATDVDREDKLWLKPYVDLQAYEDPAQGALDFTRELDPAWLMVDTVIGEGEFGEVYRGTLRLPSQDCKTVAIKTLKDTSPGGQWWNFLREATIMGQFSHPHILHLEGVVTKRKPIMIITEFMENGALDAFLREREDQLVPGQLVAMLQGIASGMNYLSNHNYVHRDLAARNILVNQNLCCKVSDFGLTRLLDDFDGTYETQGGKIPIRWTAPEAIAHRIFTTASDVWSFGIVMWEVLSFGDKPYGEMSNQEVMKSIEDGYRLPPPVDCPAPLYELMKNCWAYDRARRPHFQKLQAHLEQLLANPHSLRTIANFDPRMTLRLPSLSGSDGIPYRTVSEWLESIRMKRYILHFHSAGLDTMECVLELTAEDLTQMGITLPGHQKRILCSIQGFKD
Method: Cells were plated in 24-well dishes at a density of 100,000 cells/well and grown for 24 hours prior to stimulation with appropriate compounds and ephrins for the given amounts of time. Compounds were prepared in DMSO at 500 times the final concentrations and 0.2% DMSO was used as vehicle control. Following treatment, cells were lysed directly in SDS Gel Loading Buffer and immunoblotted as described previously. […] For immunoprecipitation, 300,000 cells/well were plated in 6-well dishes and lysed in modified RIPA Buffer (20 mM Tris-HCl pH 7.4, 20 mM NaF, 150 mM NaCl, 10% glycerol, 0.1% SDS, 0.5% DCA, 2 mM EDTA, 1% Triton X-100) following treatment. Either 10 μg of ephrin-A1-Fc, or 4 mg of EphA2 mouse monoclonal antibody (Clone D7, Millipore) were used, and mouse IgG was used as a negative control for EphA2 IP. […] For this purpose, HEK 293 cell lines overexpressing EphA1, EphA2, EphA3, EphA4, and EphB3 kinases were utilized.

ERK1/2 and Akt = test: Inhibition of ERK1/2 and Akt activation in A172-A2 cells; conditions: 50 μM and 100 μM
Method: (§1) Cells were plated in 24-well dishes at a density of 100,000 cells/well and grown for 24 hours prior to stimulation with appropriate compounds and ephrins for the given amounts of time. Compounds were prepared in DMSO at 500 times the final concentrations and 0.2% DMSO was used as vehicle control. Following treatment, cells were lysed directly in SDS Gel Loading Buffer and immunoblotted as described previously. Immunoprecipitation and immunofluorescence staining was performed as described. For immunoprecipitation, 300,000 cells/well were plated in 6-well dishes and lysed in modified RIPA Buffer (20 mM Tris-HCl pH 7.4, 20 mM NaF, 150 mM NaCl, 10% glycerol, 0.1% SDS, 0.5% DCA, 2 mM EDTA, 1% Triton X-100) following treatment. Either 10 μg of ephrin-A1-Fc, or […] of EphA2 mouse monoclonal antibody (Clone D7, Millipore) were used, and mouse IgG was used as a negative control for EphA2 IP.
(§2) Activation of EphA2 receptor by ephrin-A1 ligand inhibits both ERK1/2 and Akt kinase activities in most normal cells and a subset of cancer cells. […] We first tested this by utilizing the A172 glioma cells engineered to overexpress EphA2 receptor (A172-A2).

endogenous EphA2 = endogenous EphA2 (Homo sapiens, UniProt P29317); test: Activation of endogenous EphA2 in PC-3 cells (pEphA/B immunoblot); parameters: host or cells: PC-3; conditions: 30 minutes
Method: as §1
(§3) To determine whether the EphA2 agonist activity of doxazosin is cell-context specific, we evaluated the effects of doxazosin on additional cell types. We first utilized HEK 293 cells overexpressing EphA2 (HEK 293-A2) that we described previously. […] Next we tested PC-3 cells that express high levels of endogenous EphA2 receptor. […] We next evaluated the time-course of activation in both MDA-231-A2 and HEK 293-A2 cells upon treatment with a single 50 μM dose of doxazosin.

EphA2 [1] = target: T2, EphA2 (Homo sapiens, UniProt P29317); test: EphA2 activation in HEK 293-A2 cells (pEphA/B immunoblot); parameters: expressed in transfected cells
Method: as §1, §3

EphA2 [2] = target: T2, EphA2; test: EphA2 activation in A172-A2 glioma cells; parameters: expressed in transfected cells
Method: as §1, §2

EphA2 [3] = target: T2, EphA2; test: EphA2 internalization in MDA-MB-231 cells (immunofluorescence, Example 2); parameters: expressed in transfected cells; host or cells: MDA-MB-231 (MDA-231-A2 / MDA-MB-231-A2), puromycin selected; conditions: 60 min, Doxazosin 50 μM
Method: This was performed using the MDA-MB-231 cell line. This cell line spreads well in culture, thereby facilitating immunofluorescence detection of cell surface and intracellular EphA2 (FIG. 28). […] MDA-MB-231 cells were plated in 24-well plates on 10 mm square coverslips coated with 10 μg/ml fibronectin and incubated 24-48 hrs before treatment with 50 μM Doxazosin and various doses of compound 27 (0.4, 2, 10, 50 μM) in 0.5% DMSO for 1 hr. As another positive control, cells were treated with 2 μg/ml ephrin-A1-Fc. Cells were then washed with PBS and fixed with 4% paraformaldehyde (Electron Microscopy Sciences, Hatfield, PA) on ice for 10 min, followed by washing and permeabilization with 0.4% NP-40 for 10 min on ice. […] Cells were then incubated in primary mouse EphA2 antibody (D7, 1:100) in 0.1% BSA/PBS for 1 hr at room temperature, washed in PBS and BSA/PBS, followed by incubation in secondary donkey anti-mouse Alexa Fluor 488 antibody (1:300) in BSA/PBS for 30 min at room temperature. Cells were washed in PBS and BSA/PBS, followed by mounting in DAPI Mounting Medium (Electron Microscopy Sciences). Images were taken with a Leica microscope.

T2 sequence (P29317 24-976): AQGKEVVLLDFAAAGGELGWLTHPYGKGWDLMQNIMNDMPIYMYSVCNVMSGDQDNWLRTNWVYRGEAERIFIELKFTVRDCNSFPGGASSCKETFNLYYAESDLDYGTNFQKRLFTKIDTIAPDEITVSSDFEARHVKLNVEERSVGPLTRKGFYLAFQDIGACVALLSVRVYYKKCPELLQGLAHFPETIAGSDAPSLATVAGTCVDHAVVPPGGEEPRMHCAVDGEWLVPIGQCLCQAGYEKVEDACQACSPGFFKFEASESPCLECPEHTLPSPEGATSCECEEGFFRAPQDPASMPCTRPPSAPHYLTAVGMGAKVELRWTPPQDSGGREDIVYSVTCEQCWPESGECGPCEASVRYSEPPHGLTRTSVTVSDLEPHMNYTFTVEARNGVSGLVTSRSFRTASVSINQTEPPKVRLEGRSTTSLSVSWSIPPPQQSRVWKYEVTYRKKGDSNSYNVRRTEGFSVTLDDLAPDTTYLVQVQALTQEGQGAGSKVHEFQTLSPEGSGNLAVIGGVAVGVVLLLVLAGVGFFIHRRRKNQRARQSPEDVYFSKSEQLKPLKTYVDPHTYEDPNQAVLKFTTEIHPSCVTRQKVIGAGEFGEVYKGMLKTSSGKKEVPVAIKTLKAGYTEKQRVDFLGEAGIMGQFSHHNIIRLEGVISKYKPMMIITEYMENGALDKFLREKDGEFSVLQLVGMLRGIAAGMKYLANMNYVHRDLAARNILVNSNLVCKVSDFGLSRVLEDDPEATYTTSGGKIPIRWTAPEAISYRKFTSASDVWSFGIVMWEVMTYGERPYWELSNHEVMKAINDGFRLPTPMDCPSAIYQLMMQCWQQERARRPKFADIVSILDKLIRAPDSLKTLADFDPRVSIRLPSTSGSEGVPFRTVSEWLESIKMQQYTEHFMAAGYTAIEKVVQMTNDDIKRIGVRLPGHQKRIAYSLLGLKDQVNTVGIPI
Chain of endogenous EphA2 (P29317 24-976): as above

## COc1cc2nc(N3CCN(C(=O)C4COc5ccccc5O4)CC3)nc(N)c2cc1OC (stereo not drawn) [Doxazosin, 2-[4-(2,3-Dihydro-1,4-benzodioxine-2-carbonyl)piperazin-1-yl]-6,7-dimethoxyquinazolin-4-amine]
EphA1
  EphA1 activation: no activation of EphA1
ERK1/2 and Akt
  inhibition of Akt and ERK1/2 activation: significant inhibition of Akt and ERK1/2 activation
Endogenous EphA2
  concentration at which EphA2 activation becomes evident: 50 µM
EphA2 [1]; HEK 293-A2 cells, 30 minutes
  concentration at which EphA2 activation starts: 25 µM
EphA2 [1]; HEK 293-A2 cells, single 50 μM dose
  time at which EphA2 activation becomes evident: 10 min
EphA2 [1]; HEK 293 overexpressing EphA2, 60 minutes
  EphA2 kinase activation: activated both EphA2 and EphA4 kinases following a similar dose-response relationship
EphA2 [2]; A172-A2 cells, 90 minutes
  concentration at which EphA2 activation starts: around 25 μM
EphA2 [2]; A172 cells
  EphA2 degradation: degradation of EphA2 following doxazosin treatment
EphA2 [3]
  EphA2 internalization: stimulated significant EphA2 internalization
